Experimental data published in patent US12023319B2, “Carboxylic acid aromatic amides” (priority 2016, dated 2024).

Assays:
[1] = test system: Female Brown Norway rats; assay: Rat model for endometriosis, late phase (15 day); type: in vivo; settings: rat 15 day endometriosis model, once daily p.o. 5, 30, 60 mg/kg; FIG. 5-6
Experimental: 5. Rat Model for Endometriosis, Late Phase Female Brown Norway rats (Charles-River) were treated with Compound Example 3 (doses: 5 mg/kg, 30 mg/kg, 60 mg/kg) or vehicle alone (10% DMSO+90% phosphate buffered saline (PBS). 2 h later all animals got under deep anesthesia a transplantation of 6 uterus pieces in the peritoneal cavity. The tissue was obtained from donor animals which were pre-treated with 3 μg s.c. Estradiol for 2 days to guarantee standardized conditions of the uterus tissue. The animals were treated once daily p.o. with Compound Example 3 (doses: 5 mg/kg, 30 mg/kg, 60 mg/kg) or respective vehicle (10% DMSO+90% phosphate buffered saline (PBS). 15 days later the animals were sacrificed and the transplants as surrogate endometriosis lesion tissue were analyzed for markers of lesion activity (inflammatory cytokines). This approach is mimicking the long term effect on established inflammation in endometriosis. Analysis For ex vivo cytokine analysis, animals were sacrificed and tissues (endometriosis lesions) were frozen at −80° C. […] After centrifugation at 13.000 U/min (Eppendorf) supernatants were analyzed for cytokine levels using Bio-Plex Pro™ Rat Cytokine 24-plex (Bio Rad Assay #171K1001M) or the Bio-Plex Pro™ Mouse Cytokine 23-Plex (Bio Rad Assay #M600009RDPD) according to the manufacturer's protocols.

[2] = test system: B6-Mice expressing the human B1 receptor; assay: Mouse model for peritonitis (thioglycollate induced, peroxidase activity in lavage); type: in vivo; settings: p.o. 30, 100 mg/kg, lavage 24 h after induction, significantly, FIG. 7
Experimental: 6. Mouse Model for Peritonitis
Black 6 (B6)-Mice expressing the human B1 receptor, lacking the murine B1 receptors which were specifically generated (B6-hBDKRB1 <tm1Arte>/N) and employed for a thioglycollate induced peritonitis model to test for effects of Bradykinin B1 receptor antagonism on peritoneal inflammation and related leukocyte trafficking which reflects the mode of actions underlying endometriosis.
Animals were treated p.o. with Compound Example 3 (doses: 30 mg/kg, 100 mg/kg) or respective vehicle (10% DMSO+90% phosphate buffered saline (PBS) alone 1 h before i.p. application of 1 ml 4% thioglycollate medium (in sterile PBS, matured for >4 weeks). The treatment with vehicle or Compund Example 3 was repeated 3 and 24 hours after induction of peritonitis. 24 h after peritonitis induction the animals were sacrificed and a lavage of peritoneal fluid performed. The resulting lavage is analysed for peroxidase enzyme activity which is reflecting number of activated neutrophils in the peritoneal cavity by peroxidase activity assay as follows:
Tetramethylbenzidine (TMB) dihydrochloride is used as a sensitive chromogen substrate for peroxidase. […]
Changes in optical densities (OD) are monitored in an ELISA plate-reader at 450 nm at 25° Celsius against the mixture of all solutions without the added sample homogenate. […]

[3] = test system: female Sprague Daley rats; assay: Cyclophosphamide-induced overactive bladder and cystitis (rats); type: in vivo, rat
Excerpt: 12. Cyclophosphamide-Induced Overactive Bladder and Cystitis (Rats)
The aim of this study was to test the efficacy of Compound Examples on overactive bladder as well as on interstitial cystitis and bladder pain syndrome in cyclophosphamide-treated rats.
The experimental setup is adapted to a previous described protocol (Lecci A et al, Br J Pharmacol 130: 331-38, 2000).
Strong presence and target induction of BDKRB1 in comparison to BDKRB2 has been verified by gene expression analysis in bladders removed from rats after cyclophosphamide (100 mg/kg and 150 mg/kg i.p.) induction in contrast to bladders of naïve, untreated rats. Immunohistochemistry confirmed the presence of BDKRB1 in bladders of rats after model induction, too.
Briefly, female Sprague Daley rats (˜200 g) were housed under normal conditions for laboratory rats in a 12:12-h light:dark cycle. Rats have been weighed, the tested Compound Examples were dissolved in relevant vehicle (e.g. DMSO/Water) (5/95) (v/v) and have been administrated by oral gavage in different concentrations one hour before application of cyclophosphamide (150 mg/kg) by i.p. injection. Additional 1.5 hours after cyclophosphamide administration each rat was transferred to a metabolic cage and voiding frequency has been recorded for the next 15 hours. Total amount of urine (ml) was collected via a plastic tube attached to the metabolic cages. The urine collecting tube was connected to a weight-sensitive sensor and a pressure transducer connected via an amplifier (ADIstruments) to the data acquisition software program (LabChart, ADInstruments) and a computer. […] At the end of the experiment rats have been weighed and killed under isoflurane anaesthesia and bladders have been removed and weighed. The bladders' wet weight was normalized to 100 g of body weight of each rat and analysis has been performed using GraphPad Prism 7 program.

O=C(O)c1cc(NC(=O)C2(c3ccc(C(F)(F)F)cc3F)CC2)ccc1-c1cnn(C2CCC2)c1 [Example 3, 2-(1-Cyclobutyl-1H-pyrazol-4-yl)-5-[({1-[2-fluoro-4-(trifluoromethyl)phenyl]cyclopropyl}carbonyl)amino]benzoic acid]
expression of inflammatory cytokines in the lesions (IL-1 alpha, IL-1 beta) [1]: decreased
signal specific for neutrophil influx into inflamed tissue (peroxidase activity) [2]: reduced
bladder weight normalized to 100 g of body weight ([3]; 60 mg/kg, compared to vehicle treatment, FIG. 11): significantly reduced
number of micturitions/hour ([3]; preventive single gavage 15 mg & 60 mg/kg, cyclophosphamide 150 mg/kg i.p., FIG. 9): efficacy on reducing
AUC during the plateau phase of the micturition (4-10 hours after transfer to metabolic cages) ([3]; preventive single gavage, both tested dosages 15 mg & 60 mg/kg, FIG. 10): significantly reduced
